Data: patent EP2292225A1 (priority 1997, dated 1998)
Entries after “also recorded” stand apart in the source; their conditions may differ. Where two headings read alike, the source gives them in different places.

Key:
swine coronary arteries = assay: Swine Coronary Artery Study: MIC catheter infusion after embolectomy or over-sized PTCA balloon trauma, morphometry at 4 weeks; type: in vivo
Method: Swine coronary arteries were also traumatized by embolectomy or over-sized PTCA balloon, and then 8-16 ml of cytochalasin B at 8.0 µg/ml was infused into the arterial wall with a MIC catheter to achieve a therapeutic dose. Controls included a diluent control and a traumatized untreated control, and all animals were sacrificed 4 weeks after intervention and coronary arteries were fixed by perfusion. Morphometry was performed on selected sections from proximal, treated and distal segments of coronary arteries (Table 15).
The diameter of, or the area within, the EEL of the artery can be compared to controls as an indicator of the degree of vascular remodeling. The lack of a statistically significant increase in luminal area may be due to increased sample variablility, increased neointimal formation, and/or increased degree of trauma.

[1] = tested on: balloon traumatized rabbit carotid artery; type: in vivo
[2] = tested on: Vascular smooth muscle cells; conditions: 1 µg/ml; an anti-migration/contraction effective dose
[3] = Biodistribution after i.p. injection (HPLC); type: in vivo, mice
Method: Biodistribution of Cytochalasin B. To determine the biodistribution of cytochalasin B, mice were injected (i.p.) with 50 mg/kg cytochalasin B. Control mice were injected with DMSO/Tween 20/carboxymethyl cellulose ("vehicle"). The mice were sacrificed at 3, 12, 24 and 72 hours after cytochalasin B or vehicle administration. Organs were removed, homogenized, extracted and the amount of cytochalasin B in tissues quantitated by HPLC. About 75% of the cytochalasin B remained in the peritoneal cavity or at the injection site.

[4] = tested on: Vascular smooth muscle cells (BO54); assay: Scratch assay of smooth muscle cell migration; type: cell-based, baboon; parameters: key: - = no migration; +1 = minimal; +2 = mild; +3 = moderate; +4 = marked (maximum density; limit of cell contact inhibition) migration; conditions: for Migration Grade in an Undisturbed Region of the Well / Migration Grade in the Cleared Area of the Well: Day 1/3/6/8/10 = r5/r7/r9/r11/r13; for morphological Toxicity Grade: Day 1/3/6/8/10 = r6/r8/r10/r12/r14, listed as CY[…]
Method: Scratch assays to determine the extent of smooth muscle cell migration inhibition by cytochalasin B were performed in accordance with the following protocol: • Vascular smooth muscle cells (BO54) were derived from explants of baboon aortic smooth muscle, as described in Example 10. The cells were grown in flat bottom, six well tissue culture plates, which hold about 5 ml of medium. The vascular smooth muscle cells were plated at 200,000 cells/well and placed at 37°C in a humidified 5% CO2 incubator for 18 hours. The wells were then scratched with a sterile portion of a single edge razor blade that was held by clamp or pliers and was brought aseptically into contact with the bottom of the well at a 90° angle. The cells from a small area along the scratch were removed by a sterile cotton tipped applicator while the blade was in contact with the bottom of the well. After incubation, the presence of cells in the "scratched" area is indicative of cell migration across the scratch line.
Briefly, a stock solution of cytochalasin B (Sigma Chemical Co.) in dimethyl sulfoxide (DMSO) at 1 mg/ml was prepared. Test dilutions of cytochalasin B or control medium were added. Each experiment included two sets of plates: A set: Test agent exposure for 1, 3, 6, 8 and 10 days only; and B set: Test agent exposure for 1, 3, 6, 8 and 10 days, followed by a seven day recovery time with control medium. Both sets of plates were fixed (10% formalin in PBS) and stained (0.02% crystal violet) at the end of the timed exposures. Test concentrations for cytochalasin B were 1, 0.1 and 0.01 µg/ml, and a negative medium control was included. Fresh medium and drug were supplied 3 times per week.
In this Table, "M" indicates Migration Grade, wherein - = no migration; +1 = minimal; +2 = mild; +3 = moderate; and +4 = marked (maximum density; limit of cell contact inhibition) migration of vascular smooth muscle cells into the cleared area adjacent to the scratch. In this Table, "T" denotes a morphological Toxicity Grade, wherein - = no toxicity; +1 = minimal; +2 = mild; +3 = moderate; and +4 = marked toxicity. The migration results are expressed as "Grade in the Cleared Area of the Well / Grade in an Undisturbed Region of the Well." The toxicity values represent a grade for all cells in each well.

[5] = 7 day intravenous toxicity study; type: in vivo, rats; conditions: 10 µg/ml four times a day for 7 days (800 µg/kg daily)
Method: To determine the metabolism of ^3H-cytochalasin B in human blood, ^3H-cytochalasin B (8 µg/ml) was dissolved in saline; 1:1 dilution of saline and human plasma; or 1:1 dilution of saline and human whole blood. […] Toxicity Studies. To determine the toxicity of cytochalasin B, rats (4 male and 4 female) were injected with 10 µg/ml cytochalasin B four times a day for 7 days (Table 11). Data regarding body weight changes, food consumption, food efficiency, hematology parameters, coagulation parameters, serum chemistry parameters, and gross necropsy findings were collected. […] There were no gross or microscopic changes detected in the heart to account for the elevation. Thus, daily administration of cytochalasin B to rats at a dose of 800 µg/kg (for a total injected dose of 5600 µg/kg) may have an effect on heart weight of female (but not male) rats. However, clotted blood was not routinely removed from the heart lumens prior to weighing the heart.

[6] = 8.0 µg/ml infused with MIC catheter after embolectomy or over-sized PTCA balloon trauma, sacrificed 4 weeks after intervention, mean
[7] = 8-16 ml at 8.0 µg/ml, 4 weeks after intervention
[8] = Group 7a: 10% wt/wt, three weeks
[9] = 7-day Recovery Post Exposure, 1.0 µg/mL

## C=C1[C@@H](C)[C@H]2[C@H](Cc3ccccc3)NC(=O)[C@]23OC(=O)/C=C/[C@H](O)CCC[C@@H](C)C/C=C/[C@H]3[C@@H]1O [cytochalasin B]
Swine coronary arteries; [6]
  Neointimal Area: 1.56
  luminal area: 0.58
Swine coronary arteries; [7]
  arterial area bounded by the external elastic lamina: trend toward beneficial arterial remodeling
  luminal area: did not result in a statistically significant increase in luminal area
Swine coronary arteries; area bounded by external elastic lamina, 8.0 µg/ml infused with MIC catheter, sacrificed 4 weeks after intervention, mean
  Arterial Area: 1.80
[1]; Group 1: 20 mg in 1 g bovine collagen gel, bovine collagen mesh wrap, 1 week
  intimal proliferation: no intimal or adventital proliferation
[1]; Group 1: 20 mg in 1 g bovine collagen gel, bovine collagen mesh wrap, 2 weeks
  intimal proliferation: minimal intimal and adventital proliferation
[1]; Group 1: 20 mg in 1 g bovine collagen gel, bovine collagen mesh wrap, three weeks
  intimal proliferation: no intimal proliferation
[1]; Group 2: 30% wt/wt in silicone wrap, 3 weeks
  intimal proliferation: moderate, irregular intimal proliferation
[1]; Group 2: 30% wt/wt in silicone wrap, one week
  intimal proliferation: no significant intimal or adventitial proliferation
[1]; Group 2: 30% wt/wt in silicone wrap, two weeks
  intimal proliferation: complete inhibition of intimal proliferation
[1]; Group 3: 8 mg in 100 mg pluronic gel, bovine collagen mesh wrap, one week
  intimal proliferation: mild intimal proliferation
[1]; Group 3: 8 mg in 100 mg pluronic gel, bovine collagen mesh wrap, three weeks
  intimal proliferation: moderate amount of intimal hyperplasia
[1]; Group 3: 8 mg in 100 mg pluronic gel, bovine collagen mesh wrap, two weeks
  intimal proliferation: mild, irregular intimal proliferation
[1]; Group 3: 8 mg in 100 mg pluronic gel, one week
  re-endothelization: approximately 30%
[1]; Group 4: 100 mg (10% wt/wt) in 1 g silicone wrap, one week
  intimal proliferation: no intimal proliferation
[1]; Group 4: 100 mg (10% wt/wt) in 1 g silicone wrap, three weeks
  intimal proliferation: minimal to no intimal proliferation
[1]; Group 4: 100 mg (10% wt/wt) in 1 g silicone wrap, two weeks
  intimal proliferation: minimal intimal proliferation
[1]; Group 4: 10% wt/wt silicone wrap, three weeks
  re-endothelization: < 10%
[1]; Group 7a: 10% wt/wt, one and two weeks
  intimal proliferation: no intimal proliferation for 2 weeks
[1]; [8]
  intimal proliferation: mild irregular intimal proliferation
  re-endothelized: 70%
[1]; Group 8a: 10% wrap for 2 weeks, removed, evaluated 2 weeks later, animals 1254, 1255, 1256
  intimal proliferation: none to mild; also recorded: mild to moderate intimal proliferation
[1]; Group 10: 10 mg in 1 g silicone wrap (1% wt/wt) for 2 weeks, removed, 2 weeks later, animal 1304
  intimal proliferation: moderate initmal proliferation
[1]; Group 10: 1% wrap for 2 weeks, removed, 2 weeks later, animal 1304
  re-endothelization: 100%
[1]; Group 11: 1% wrap for 2 weeks, removed, four weeks later, animal 1308
  re-endothelized: 100%
[1]; Group 11: 1% wrap for 2 weeks, removed, four weeks later, animals 1307, 1308, 1309
  intimal proliferation: moderate initmal proliferation; also recorded: moderate intimal proliferation; also recorded: marked intimal proliferation
[1]; Groups 10 and 11: 1% wt/wt silicone wrap for 2 weeks, removed, 2 or 4 weeks later
  qualitative difference between test and control animals: No significant difference
[2]
  cytotoxicity grade: 1
[3]; 50 mg/kg i.p.
  organ with the highest amount: highest amount of cytochalasin B was found in the liver
  remained in the peritoneal cavity or at the injection site: About 75%
[3]; may be administered every second day
  maximum tolerated dose: 50 mg/kg
[4]; [9]
  Migration Grade in an Undisturbed Region of the Well: +3
  Migration Grade in the Cleared Area of the Well: +2
[4]; Continuous Exposure, 0.1 µg/mL
  morphological Toxicity Grade: +1
[4]; Continuous Exposure, 1.0 µg/mL
  Migration Grade in an Undisturbed Region of the Well: +2
  Migration Grade in the Cleared Area of the Well: -
  morphological Toxicity Grade: +3
[5]
  only parameter which suggested an adverse effect: elevation of the mean relative heart weight in treated female animals
